Consider 18 compounds from patent US20130252930A1 (BIOMARIN PHARMACEUTICAL INC., priority 2010, published 2013).

Read-outs that look alike come from different tables or passages of the source.

Data set [1] addresses T1, CYP17 (human testicular microsome) (Homo sapiens, UniProt P05093).
T1 construct: using microsomal fraction from human testis (Celsis Cat #S00110) as the enzyme source; tissue Celsis S00110; host or cells: human testis microsomal fraction
T1 sequence (P05093 1-508): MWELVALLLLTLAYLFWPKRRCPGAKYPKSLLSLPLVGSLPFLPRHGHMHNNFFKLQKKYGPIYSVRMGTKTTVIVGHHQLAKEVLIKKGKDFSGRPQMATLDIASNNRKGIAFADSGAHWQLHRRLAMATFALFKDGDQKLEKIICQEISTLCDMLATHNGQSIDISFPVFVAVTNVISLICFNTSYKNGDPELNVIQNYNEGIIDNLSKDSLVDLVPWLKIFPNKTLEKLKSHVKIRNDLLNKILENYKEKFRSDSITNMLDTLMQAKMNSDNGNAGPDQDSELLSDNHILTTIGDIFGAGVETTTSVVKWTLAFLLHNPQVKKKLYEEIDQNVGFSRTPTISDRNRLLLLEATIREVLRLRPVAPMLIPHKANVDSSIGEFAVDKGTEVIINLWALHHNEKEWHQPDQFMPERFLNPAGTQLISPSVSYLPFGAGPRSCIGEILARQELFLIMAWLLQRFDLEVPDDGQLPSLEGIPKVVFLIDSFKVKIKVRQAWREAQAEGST
The experiment in a line: CYP17 enzymatic assay (IC50) (Biological Example 4). It is filed as biochemical. The settings on record: human testicular microsome.

Data set [2] deals with T1, CYP17 (human testicular microsome). As to the kind of experiment: CYP17 enzymatic assay (% inhibition at 10 nM), version 1 (Biological Example 5). It is filed as biochemical. Conditions: 10 nM compound, DHEA by ELISA, read-out: Biological Example No. 5: CYP17 percent inhibition at 10 nM (version 1).
Data set [3] in a line: Human liver microsome stability assay (Biological Example 8b). Conditions: liver microsomes, pH 7.4.
Experimental: The reaction was started with addition of excess NADPH (5 mg/mL, 15 μL in 0.1 M potassium phosphate buffer, 1.0 mM EDTA, pH 7.4), the total volume is 45 μL (compound final concentration was 1 μM). […] 50 μL of the supernatant was transferred from each well into a 96-well sample plate containing 50 μL of ultra-pure water (Millipore) for LC-MS/MS analysis.
The target of data set [4] is T1, CYP17 (human testicular microsome). The experiment in a line: CYP17 enzymatic assay (% inhibition at 1 nM) (Biological Example 12). It is filed as biochemical. Conditions: compound at 1 nM.
Data set [5] has as its target T2, Cyp21 enzyme (Human HEK 293-Cyp21 stable transfected cells) (Homo sapiens, UniProt P08686).
T2 construct: expressed in transfected cells
T2 sequence (P08686 1-495): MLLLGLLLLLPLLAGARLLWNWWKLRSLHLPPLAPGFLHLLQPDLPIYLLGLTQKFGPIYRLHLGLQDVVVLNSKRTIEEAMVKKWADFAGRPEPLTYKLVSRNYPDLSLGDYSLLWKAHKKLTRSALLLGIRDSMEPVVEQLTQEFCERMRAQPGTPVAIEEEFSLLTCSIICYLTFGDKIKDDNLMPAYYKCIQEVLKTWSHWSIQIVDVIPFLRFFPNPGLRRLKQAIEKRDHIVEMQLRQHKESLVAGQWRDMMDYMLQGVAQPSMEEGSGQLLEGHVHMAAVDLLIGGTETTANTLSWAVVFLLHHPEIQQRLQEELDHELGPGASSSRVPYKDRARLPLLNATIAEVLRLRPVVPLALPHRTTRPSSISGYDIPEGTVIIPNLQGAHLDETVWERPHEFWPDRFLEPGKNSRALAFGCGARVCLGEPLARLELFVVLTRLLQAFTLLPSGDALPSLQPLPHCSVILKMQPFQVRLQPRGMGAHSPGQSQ
As to the kind of experiment: CYP21-HEK293 enzymatic assay (IC50) (Biological Example 11). It is filed as cell-based. The settings on record: HEK 293-Cyp21 stable transfected cells; read-out: CYP21-HEK293 enzymatic assay IC50 (Biological Example No. 11).

Setting [6] is: DHEA by ELISA, read-out: Biological Example No. 4: CYP17 enzymatic assay IC50.
Where [7] appears, read: read-out: Biological Example No. 4: CYP17 enzymatic assay IC50.
[8] abbreviates: read-out: Biological Example No. 12: CYP17 enzymatic assay % inhibition at 1 nM.
Where [9] appears, read: read-out: CYP17 enzymatic assay IC50 (Biological Example No. 4).
Setting [10] is: read-out: CYP17 enzymatic assay % inhibition at 1 nM (Biological Example No. 12).

With `C[C@]12CCCCC1C(O)C[C@@H]1[C@@H]2CC[C@]2(C)C(n3ccnc3)=CC[C@@H]12` (stereo partly drawn) [Compound 85, (10R,13S)-17-(1H-imidazol-1-yl)-10,13-dimethyl-2,3,4,5,6,7,8,9,10,11,12,13,14,15-tetradecahydro-1H-cyclopenta[a]phenanthren-6-ol], the IC50 in data set [1] (setting [6]) is less than 0.011 µM. Also, the inhibition at 0.01 µM in data set [2] is 50 to 80%. The same compound registered a half-life at 1 μM in data set [3] of 1 to 50 min.
On the same counts, the results for `C[C@]12CCC(=O)CCC1=CCC1[C@@H]2CC[C@]2(C)C(n3ccnc3)=CC[C@@H]12` (stereo partly drawn) [Compound 106, (3aS,10aR,10bS,12aS)-1-(1H-imidazol-1-yl)-10a,12a-dimethyl-3,3a,3b,4,6,7,10,10a,10b,11,12,12a-dodecahydrocyclohepta[a]cyclopenta[f]naphthalen-8(9H)-one] are less than 0.011 µM, more than 80% and 1 to 50 min.
`C[C@]12CC[C@H]3[C@@H](CC[C@H]4C[C@@H](O)CC[C@@]43C)C1=CC=C2c1cccnc1` [Compound 163, (5S,8R,9S,10S,13S)-10,13-dimethyl-17-(pyridin-3-yl)-2,3,4,5,6,7,8,9,10,11,12,13-dodecahydro-1H-cyclopenta[a]phenanthren-3-ol]: the IC50 in data set [1] (setting [6]) is less than 0.011 µM. For the same compound, in data set [2], the inhibition at 0.01 µM is more than 80%. This compound came in with a half-life at 1 μM in data set [3] of more than 50 min.
For the compound `C[C@]12CC[C@H](O)CC1=CCC1C2CC[C@]2(C)C(c3cncc(N)c3)=CCC12` (stereo partly drawn) [Compound 283, (3S,10R,13S)-17-(5-aminopyridin-3-yl)-10,13-dimethyl-2,3,4,7,8,9,10,11,12,13,14,15-dodecahydro-1H-cyclopenta[a]phenanthren-3-ol], the IC50 in data set [1] (setting [7]) was less than 0.011 µM. Besides, the inhibition at 0.001 µM in data set [4] (setting [8]) is more than 50%. In addition, the half-life at 1 μM in data set [3] is more than 50 min.
`CC1(C)C2=CCC3C4=CC=C(c5cccnc5)[C@@]4(C)CCC3[C@@]2(C)CCC1O` (stereo partly drawn) [Compound 298, (10R,13S)-4,4,10,13-tetramethyl-17-(pyridin-3-yl)-2,3,4,7,8,9,10,11,12,13-decahydro-1H-cyclopenta[a]phenanthren-3-ol]: the 50% inhibitory concentration (IC50) in data set [1] (setting [9]) is more than 0.025 µM. Further, the inhibition at 0.001 µM in data set [4] (setting [10]) was in the range of 10 to 50%. For the same compound, in data set [3], the half-life at 1 μM fell in the range of 1 to 50 min.
Take `C[C@]12CCC3C(CC(F)[C@]4(O)C[C@@H](O)CC[C@]34C)C1CC=C2c1cccnc1` (stereo partly drawn) [Compound 322, (3S,5S,10R,13S)-6-fluoro-10,13-dimethyl-17-(pyridin-3-yl)-2,3,4,5,6,7,8,9,10,11,12,13,14,15-tetradecahydro-1H-cyclopenta[a]phenanthrene-3,5-diol]: the IC50 in data set [1] (setting [7]) was less than 0.011 µM. The inhibition at 0.001 µM in data set [4] (setting [8]) is more than 50%. The half-life at 1 μM in data set [3] fell in the range of 1 to 50 min.
On the same counts, the results for `C[C@]12CCC3C(CC(F)[C@@]4(O)C[C@@H](O)CC[C@]34C)C1CC=C2c1cccnc1` (stereo partly drawn) [Compound 323, (3S,5R,10R,13S)-6-fluoro-10,13-dimethyl-17-(pyridin-3-yl)-2,3,4,5,6,7,8,9,10,11,12,13,14,15-tetradecahydro-1H-cyclopenta[a]phenanthrene-3,5-diol] are less than 0.011 µM, more than 50% and 1 to 50 min.
On to `C=C1C[C@H]2C3=CC=C(c4cccnc4)[C@@]3(C)CC[C@@H]2[C@@]2(C)CCC(=O)C=C12` [Compound 348, (10R,13S)-10,13-dimethyl-6-methylene-17-(pyridin-3-yl)-6,7,8,9,10,11,12,13-octahydro-1H-cyclopenta[a]phenanthren-3(2H)-one], for which the IC50 in data set [5] lay within 0.01 to 0.1 µM.
For the compound `C[C@]12CC[C@H]3[C@@H](CC4(CC4)C4=CC(=O)CC[C@@]43C)C1=CC=C2c1cccnc1` [Compound 351, (10R,13S)-10,13-dimethyl-17-(pyridin-3-yl)-1,7,8,9,10,11,12,13-octahydrospiro[cyclopenta[a]phenanthrene-6,1′-cyclopropan]-3(2H)-one], the IC50 in data set [5] is less than 0.01 µM.
`C=C1C[C@H]2C3=CC=C(c4cncc(F)c4)[C@@]3(C)CC[C@@H]2[C@@]2(C)CCC(=O)C=C12` [Compound 353, (10R,13S)-17-(5-fluoropyridin-3-yl)-10,13-dimethyl-6-methylene-6,7,8,9,10,11,12,13-octahydro-1H-cyclopenta[a]phenanthren-3(2H)-one]: in data set [5], the half-maximal inhibitory concentration (IC50) was 0.01 to 0.1 µM.
For the compound `C[C@]12CC[C@H]3[C@@H](CC4(CC4)C4=CC(=O)CC[C@@]43C)C1=CC=C2c1cncc(F)c1` [Compound 354, (10R,13S)-17-(5-fluoropyridin-3-yl)-10,13-dimethyl-1,7,8,9,10,11,12,13-octahydrospiro[cyclopenta[a]phenanthrene-6,1′-cyclopropan]-3(2H)-one], the IC50 in data set [5] lay in the range of 0.01 to 0.1 µM.
`CN1CC[C@@]2(C)C(=CC1=O)CCC1C3=CC=C(c4cncc(F)c4)[C@@]3(C)CCC12` (stereo partly drawn) [Compound 392, (5aR,7aS)-8-(5-fluoropyridin-3-yl)-3,5a,7a-trimethyl-3,4,5,5a,5b,6,7,7a,11,12-decahydrocyclopenta[5,6]naphtho[1,2-d]azepin-2(10bH)-one]: the half-inhibitory concentration (IC50) in data set [5] was more than 0.1 µM.
With `CC1CC2C3=CC=C(c4cccnc4)[C@@]3(C)CCC2[C@@]2(C)CCN(C)C(=O)C=C12` (stereo partly drawn) [Compound 393, (5aR,7aS)-3,5a,7a,12-tetramethyl-8-(pyridin-3-yl)-3,4,5,5a,5b,6,7,7a,11,12-decahydrocyclopenta[5,6]naphtho[1,2-d]azepin-2(10bH)-one], the concentration for half-maximal inhibition (IC50) in data set [5] is 0.01 to 0.1 µM.
Regarding `CC1CC2C3=CC=C(c4cncc(F)c4)[C@@]3(C)CCC2[C@@]2(C)CCN(C)C(=O)C=C12` (stereo partly drawn) [Compound 394, (5aR,7aS)-8-(5-fluoropyridin-3-yl)-3,5a,7a,12-tetramethyl-3,4,5,5a,5b,6,7,7a,11,12-decahydrocyclopenta[5,6]naphtho[1,2-d]azepin-2(10bH)-one], the IC50 in data set [5] was more than 0.1 µM.
In the case of `CN1CC[C@@]2(C)C(=CC1=O)C1CC1[C@H]1C3=CC=C(c4cccnc4)[C@@]3(C)CC[C@@H]12` (stereo partly drawn) [Compound 396, (5aR,7aS)-3,5a,7a-trimethyl-8-(pyridin-3-yl)-3,4,5,5a,5b,6,7,7a,10b,10c,11,11a-dodecahydro-2H-cyclopenta[5,6]cyclopropa[3,4]naphtho[1,2-d]azepin-2-one], in data set [5], the IC50 was in the range of 0.01 to 0.1 µM.
Consider `CC(=O)N[C@@H]1CC[C@@]2(C)C(=CC[C@@H]3[C@@H]2CC[C@]2(C)C(c4cncc(F)c4)=CC[C@@H]32)C1` [Compound 427, N-((3R,10R,13S)-17-(5-fluoropyridin-3-yl)-10,13-dimethyl-2,3,4,7,8,9,10,11,12,13,14,15-dodecahydro-1H-cyclopenta[a]phenanthren-3-yl)acetamide], for which the IC50 in data set [1] (setting [7]) is less than 0.011 µM. In data set [4] (setting [8]), the inhibition at 0.001 µM is more than 50%. Besides, the half-life at 1 μM in data set [3] lay in the range of 1 to 50 min.
For `C#C[C@]1(O)CC[C@@]2(C)C(CCC3C2CC[C@]2(C)C(c4cccnc4)=CCC32)C1` (stereo partly drawn) [Compound 474, (3S,10S,13S)-3-ethynyl-10,13-dimethyl-17-(pyridin-3-yl)-2,3,4,5,6,7,8,9,10,11,12,13,14,15-tetradecahydro-1H-cyclopenta[a]phenanthren-3-ol], the IC50 in data set [1] (setting [9]) was more than 0.025 µM. Also, in data set [4] (setting [10]), the inhibition at 0.001 µM was in the range of 10 to 50%. In data set [3], the half-life at 1 μM is more than 50 min.
Regarding `CC(=O)N[C@@H]1CC[C@@]2(C)C(=CCC3C2CC[C@]2(C)C(c4cncc(C(F)F)c4)=CCC32)C1` (stereo partly drawn) [Compound 480, N-((3R,10R,13S)-17-(5-(difluoromethyl)pyridin-3-yl)-10,13-dimethyl-2,3,4,7,8,9,10,11,12,13,14,15-dodecahydro-1H-cyclopenta[a]phenanthren-3-yl)acetamide], the IC50 in data set [1] (setting [7]) was less than 0.011 µM. In data set [4] (setting [8]), the inhibition at 0.001 µM was more than 50%. The compound further displayed a half-life at 1 μM in data set [3] of 1 to 50 min.
